# Tests used:
# A2B receptors [1] = target: T1, A2B receptors (Homo sapiens, UniProt P29275); conditions: antagonists; cited from earlier work
# T1 sequence (P29275 1-332): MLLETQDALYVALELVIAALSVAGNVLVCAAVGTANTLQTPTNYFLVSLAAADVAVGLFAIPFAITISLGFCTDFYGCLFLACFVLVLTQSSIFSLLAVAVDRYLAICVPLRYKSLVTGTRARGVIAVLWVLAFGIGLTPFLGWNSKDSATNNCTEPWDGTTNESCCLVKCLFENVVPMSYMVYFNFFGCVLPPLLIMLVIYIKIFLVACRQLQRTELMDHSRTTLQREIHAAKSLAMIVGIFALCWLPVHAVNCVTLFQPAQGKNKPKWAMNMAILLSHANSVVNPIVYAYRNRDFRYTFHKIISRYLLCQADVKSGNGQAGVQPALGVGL
# human A1 receptor = target: T2, human A1 receptor (Homo sapiens, UniProt P30542); assay: functional cAMP (HTRF) assay, recombinant CHO cells expressing human A1 receptor, forskolin, agonist CPA; assay type: cell-based
# T2 construct: expressed in transfected cells; host or cells: CHO
# T2 sequence (P30542 1-326): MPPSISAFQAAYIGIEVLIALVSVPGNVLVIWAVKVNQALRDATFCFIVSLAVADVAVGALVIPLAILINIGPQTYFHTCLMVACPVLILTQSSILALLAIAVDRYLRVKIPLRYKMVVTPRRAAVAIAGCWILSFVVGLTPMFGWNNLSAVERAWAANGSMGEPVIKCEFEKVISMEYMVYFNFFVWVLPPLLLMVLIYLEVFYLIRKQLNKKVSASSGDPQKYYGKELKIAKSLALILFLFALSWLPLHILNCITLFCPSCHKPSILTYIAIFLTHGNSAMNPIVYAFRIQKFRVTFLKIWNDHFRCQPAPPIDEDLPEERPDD
# Outline: (§1)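 Recombinant CHO cells expressing A1 or A3 receptor (Gi-coupled) were stimulated with forskolin together with test compound and agonist (CPA for A1, IB-MECA for A3), incubated 30 min, then cellular cAMP was read by HTRF. Data were normalized to inhibitor control and DMSO neutral control, then curve-fitted.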
# human A3 receptor = target: T3, human A3 receptor (Homo sapiens, UniProt P0DMS8); assay: functional cAMP (HTRF) assay, recombinant CHO cells expressing human A3 receptor, forskolin, agonist IB-MECA; assay type: cell-based
# T3 construct: expressed in transfected cells; host or cells: CHO
# T3 sequence (P0DMS8 1-318): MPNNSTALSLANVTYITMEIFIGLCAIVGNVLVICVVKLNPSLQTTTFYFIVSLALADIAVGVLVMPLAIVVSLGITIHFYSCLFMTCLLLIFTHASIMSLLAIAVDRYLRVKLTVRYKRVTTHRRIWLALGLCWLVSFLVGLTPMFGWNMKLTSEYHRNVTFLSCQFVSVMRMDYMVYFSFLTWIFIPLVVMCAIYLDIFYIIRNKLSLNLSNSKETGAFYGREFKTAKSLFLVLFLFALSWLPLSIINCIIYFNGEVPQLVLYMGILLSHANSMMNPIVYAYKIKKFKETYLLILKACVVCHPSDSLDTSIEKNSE
# Outline: as §1
# [2] = pharmacokinetic properties in mouse after single intravenous and oral administration; assay type: in vivo; conditions: PK data in mouse; for Feces iv: @0.2 (dose, unit not given); for clearance / half-life / Cmax / Vd: female, plasma, 0.2 mg/kg; for Cmax: dose-normalized to 1 mg/kg; for Vd: read-out: Vss
# Excerpt: The objective of the study was to obtain information on the pharmacokinetic properties of the compounds of the present invention in female Wistar rats/mice following single intravenous and oral administration.
# Female Wistar rats/mice (n=6) received either a single intravenous (bolus) injection or an oral administration (by gavage) of the tested compound.
# The concentrations of the compounds in plasma, feces were quantified using an UPLC method with tandem mass spectrometric detection (LC-MS/MS) previously developed at the ‘Institute of Drug Metabolism and Pharmacokinetics’. The LC-MS/MS system consisted of a Waters Acquity UPLC coupled to an AB Sciex mass spectrometer API 5500 Q-trap. […] The detection of the compounds was performed using multiple reaction monitoring in the positive ionization mode. Plasma samples were spiked with internal standard (20 μl) and the analyte was extracted from the matrix using tertiary-butyl methyl ether (tBME). The organic phase was evaporated to dryness under a stream of nitrogen. The residue was dissolved in acetonitrile/0.1% formic acid for LC-MS/MS analysis. Feces samples were homogenized with 4-times their volume of an ethanol/water mixture (4:1, v/v). Aliquots of the aqueous-ethanolic extracts were spiked with internal standard, diluted with acetonitrile/water (1:1, v/v) and directly injected into the LC-MS/MS system.
# Pharmacokinetic parameters Cmax and tmax were taken from the observed data. […] AUC values were calculated by non-compartmental analysis using the linear up/log down method. Numerical data for mean plasma concentrations and derived pharmacokinetic parameters were rounded to 3 significant digits for presentation.
# mouse Pan T cells [3] = assay: mouse Pan T cell IL-2 rescue from A2A agonist CGS-21680 (ELISA, 24 h); assay type: cell-based; conditions: Mus musculus, T-cell
# Excerpt: (§2) Adenosine (Ado) in tumor microenvironment can inhibit T cell activity by signaling through A2A receptors and suppress cytokine secretion by T cells. […] Potential A2A antagonists or A2A/A2B dual antagonists can rescue T cells from this inhibition. Herein, we describe the in vitro system we established using Pan T cells from mouse spleens to screen potential A2A antagonists or A2A/A2B dual antagonists for their activity. The method described involves the use of CD3/CD28 pre-coated beads to stimulate Pan T cells purified from mouse splenocytes, combined with the addition of A2A agonist along with potential A2A or A2A/A2B dual antagonists to evaluate potentiation of T cell cytokine production.
# (§3) Briefly, mouse Pan T cells are purified from spleens of BALB/c mice using Pan T cell isolation kit Mouse II (MACS Miltenyi biotech Cat # Order no. 130-095-130) according to manufacturer's protocol. The purified T cells are seeded in Nunc™ 96-Well Polystyrene Round Bottom Microwell Plates in RPMI medium with 10% heat inactivated fetal bovine serum. The cells are rested at 37° C. for 1 h before activating with CD3/CD28 pre-coated beads (Dynabeads™ Mouse T-Activator CD3/CD28; Cat #11456D). After 30 min the cells are treated with varying doses of test antagonist(s). […] After 24 h incubation IL-2 levels in the supernatants and after 48 h incubation IFN-γ levels in the supernatants are measured by ELISAs according to manufacturer's protocol (R&D systems Cat # DY402 (IL-2); DY485 (IFN-γ)). Once the concentrations are calculated, the difference of cytokine concentration of DMSO control and agonist alone control is calculated (called A) and the percentage of rescue by each concentration of antagonist is calculated by using Microsoft Excel. These percentages of cytokine rescue in a dose dependent manner of antagonist is plotted in GraphPad Prism software and IC50 is calculated.
# mouse Pan T cells [4] = assay: mouse Pan T cell IFN-γ rescue from A2A agonist CGS-21680 (ELISA, 48 h); assay type: cell-based; conditions: Mus musculus, T-cell
# Excerpt: as §2, §3
# human A2A receptor = target: T4, human A2A receptor (Homo sapiens, UniProt P29274); assay: functional cAMP (HTRF) assay, recombinant HEK293 cells expressing human A2A receptor, agonist NECA; assay type: cell-based
# T4 construct: expressed in transfected cells; host or cells: HEK293
# A2B receptors [5] = target: T1, A2B receptors; assay: functional cAMP (HTRF) assay, recombinant HEK293 cells expressing human A2B receptor, agonist NECA; assay type: cell-based; parameters: expressed in transfected cells; host or cells: HEK293
# T4 sequence (P29274 whole entry): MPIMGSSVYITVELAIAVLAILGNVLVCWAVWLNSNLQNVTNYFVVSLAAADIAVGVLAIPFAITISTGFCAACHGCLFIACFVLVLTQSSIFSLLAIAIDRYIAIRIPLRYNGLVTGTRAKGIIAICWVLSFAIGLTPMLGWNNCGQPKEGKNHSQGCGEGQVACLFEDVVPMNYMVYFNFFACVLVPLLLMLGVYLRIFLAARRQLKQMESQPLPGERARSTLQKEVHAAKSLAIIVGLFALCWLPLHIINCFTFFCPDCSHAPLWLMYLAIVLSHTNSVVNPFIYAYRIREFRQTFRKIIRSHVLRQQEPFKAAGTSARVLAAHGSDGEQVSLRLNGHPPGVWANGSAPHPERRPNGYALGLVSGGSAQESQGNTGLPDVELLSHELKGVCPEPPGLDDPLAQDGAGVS
IC50 (human A1 receptor) [nM],IC50 (human A3 receptor) [nM],Feces iv [2],clearance [2] [mL/min/kg],half-life [2] [min],Cmax [2] [ng/mL],Vd [2] [L/kg],IC50 (mouse Pan T cells [3]) [nM],IC50 (mouse Pan T cells [4]) [nM],IC50 (human A2A receptor) [nM],IC50 (A2B receptors [5]) [nM],Compound,affinities on A2B receptors (A2B receptors [1])
,,,,,,,,,,,"CCCn1c(=O)c2[nH]c(-c3ccc(S(=O)(=O)O)cc3)nc2n(CCC)c1=O [DPSPX, 1,3-dipropyl-8-sulphophenylxanthine]",mid to high nM range
,,,,,,,,,,,"O=c1[nH]c(=O)c2nc3ccccc3nc2[nH]1 [alloxazine, 2,4-dioxobenzopteridine]",mid to high nM range
> 1000,> 1000,42@0.2%,6.77,46.1,3160,0.357,111,350,< 10,< 100,"COc1ccc(-c2cnn(C)c2)c2nc(NC(=O)c3ccc(C(=O)N(C)C)cc3)[nH]c12 [compound 93, N4-[7-methoxy-4-(1-methyl-1H-pyrazol-4-yl)-1H-1,3-benzodiazol-2-yl]-N1,N1-dimethylbenzene-1,4-dicarboxamide]",
> 1000,> 1000,12.5@0.2%,22.5,32.9,888,1.05,100,80,< 10,< 1000,"COc1ccc(-c2cnn(C)c2)c2nc(NC(=O)c3ccc(CN4CCCC4=O)cc3)[nH]c12 [compound 100, N-[7-methoxy-4-(1-methyl-1H-pyrazol-4-yl)-1H-1,3-benzodiazol-2-yl]-4-[(2-oxopyrrolidin-1-yl)methyl]benzamide]",
,,,,,,,,,,,"CCCn1c(=O)[nH]c(=O)c2[nH]cnc21 [enprofylline, 3-n-propylxanthine]",mid to high nM range

Compound,IC50 (human A1 receptor) [nM],IC50 (human A3 receptor) [nM],Feces iv [2],clearance [2] [mL/min/kg],half-life [2] [min],Cmax [2] [ng/mL],Vd [2] [L/kg],IC50 (mouse Pan T cells [3]) [nM],IC50 (mouse Pan T cells [4]) [nM],IC50 (human A2A receptor) [nM],IC50 (A2B receptors [5]) [nM],affinities on A2B receptors (A2B receptors [1])
"COc1ccc(-c2cnn(C)c2)c2nc(NC(=O)N3CC[C@@]4(CCCOC4)C3)[nH]c12 [compound 114, (5S)-N-[7-methoxy-4-(1-methyl-1H-pyrazol-4-yl)-1H-1,3-benzodiazol-2-yl]-7-oxa-2-azaspiro[4.5]decane-2-carboxamide]",> 1000,> 1000,9@0.2%,9.43,66.6,1440,0.842,900,900,< 10,> 1000,

# Source: patent US11453647B2, “Benzimidazole derivatives as adenosine receptor antagonists” (Merck Patent GmbH, priority 2017, dated 2022)
